Source: US9206122B2, “Pesticidal arylpyrrolidines” (BAYER INTELLECTUAL PROPERTY GMBH, priority 2012, dated 2015)

What was measured:
Format in all cases: in vivo
Boophilus microplus = Boophilus microplus injection test; details: 20 μg/animal, injected into abdomen of adult engorged female ticks; egg deposition monitored after 7 days
Method: Boophilus microplus Injectiontest Solvent: dimethyl sulfoxide To produce a suitable preparation of active compound, 10 mg of active compound are dissolved in 0.5 ml solvent, and the concentrate is diluted with solvent to the desired concentration. Five adult engorged female ticks (Boophilus microplus) are injected with 1 μl compound solution into the abdomen. Ticks are transferred into replica plates and incubated in a climate chamber. After 7 days, the egg deposition of fertile eggs is monitored. Eggs where fertility is not visible are stored in glass tubes in a climate chamber till hatching after about 42 days. An efficacy of 100% means that all eggs are infertile; 0% means that all eggs are fertile.

Ctenocephalides felis = assay: whole plant or invertebrate; details: po, 48 h
Method: Ctenocephalides felis—Oral Test
(§1) Solvent: dimethyl sulfoxide
To produce a suitable preparation of active compound, 10 mg of active compound are dissolved in 0.5 ml solvent, and the concentrate is diluted with cattle blood to the desired concentration.
Approximately 20 adult unfed cat fleas (Ctenocephalides felis) are placed in flea chambers. The blood chamber, sealed with parafilm on the bottom, are filled with cattle blood supplied with compound solution and placed on the gauze covered top of the flea chamber, so that the fleas are able to suck the blood. The blood chamber is heated to 37° C. whereas the flea chamber is kept at room temperature.
After 2 days mortality in % is determined 100% means that all the fleas have been killed; 0% means that none of the fleas have been killed.

Lucilia cuprina = assay: whole plant or invertebrate; details: in Equus caballus, 48 h
Method: solvent: dimethyl sulfoxide
10 mg active compound are dissolved in 0.5 ml Dimethylsulfoxid. Serial dilutions are made to obtain the desired rates.
Approximately 20 1st instar larvae of the Australian sheep blowfly (Lucilia cuprina) are transferred into a test tube containing minced horse meat and compound solution of the desired concentration.
After 2 days mortality in % is determined. 100% means that all the larvae have been killed; 0% means that none of the larvae have been killed.

Musca domestica = assay: whole plant or invertebrate; details: 48 h
Method: as §1
To produce a suitable preparation of active compound, 10 mg of active compound are dissolved in 0.5 ml solvent, and the concentrate is diluted with water to the desired concentration.
10 adult house flies (Musca domestica) are transferred into a container, containing a sponge soaked with a mixture of sugar solution and compound solution of the desired concentration.
After 2 days mortality in % is determined. 100% means that all the flies have been killed; 0% means that none of the flies have been killed.

Tetranychus urticae = assay: whole plant or invertebrate; details: 144 h
Method: Tetranychus urticae—Spray Test, OP-Resistant
(§2) Solvent: 78.0 parts by weight acetone
(§3) • 1.5 parts by weight dimethylformamide Emulsifier: 0.5 parts by weight alkylarylpolyglycolether
(§4) To produce a suitable preparation of active compound, 1 part by weight of active compound is mixed with the stated amount of solvent and emulsifier, and the concentrate is diluted with emulsifier-containing water to the desired concentration.
French beans (Phaseolus vulgaris) which are heavily infested with all stages of the two spotted spidermite (Tetranychus urticae), are sprayed with a preparation of the active ingredient of the desired concentration.
After 6 days, mortality in % is determined. 100% means that all spider mites have been killed and 0% means that none of the spider mites have been killed.

Myzus persicae = assay: whole plant or invertebrate; details: in Brassica rapa, foliar, 144 h
Method: Myzus persicae—Spray Test
as §2, §3, §4
Chinese cabbage (Brassica pekinensis) leaf disks infected with all instars of the green peach aphid (Myzus persicae), are sprayed with a preparation of the active ingredient of the desired concentration.
After 6 days, mortality in % is determined 100% means that all aphids have been killed; 0% means that none of the aphids have been killed.

Phaedon cochleariae = assay: whole plant or invertebrate; details: in Brassica rapa, foliar, 168 h
Method: Phaedon cochleariae—Spray Test
Solvent: 78.0 parts by weight of acetone
• 1.5 parts by weight of dimethylformamide Emulsifier: 0.5 parts by weight of alkylaryl polyglycolether
as §4
Chinese cabbage (Brassica pekinensis) leaf-disks are sprayed with a preparation of the active ingredient of the desired concentration. Once dry, the leaf disks are infested with mustard beetle larvae (Phaedon cochleariae).
After 7 days mortality in % is determined. 100% means that all beetle larvae have been killed and 0% means that none of the beetle larvae have been killed.

Spodoptera frugiperda = assay: whole plant or invertebrate; details: in Zea mays, 168 h
Method: Spodoptera frugiperda—Spray Test
as §2, §3
To produce a suitable preparation of the active compound, 1 part by weight of active compound is mixed with the stated amount of solvent and emulsifier, and the concentrate is diluted with emulsifier-containing water to the desired concentration.
Maize (Zea mays) leaf sections are sprayed with a preparation of the active ingredient of the desired concentration. Once dry, the leaf sections are infested with fall armyworm larvae (Spodoptera frugiperda).
After 7 days, mortality in % is determined 100% means that all caterpillars have been killed and 0% means that none of the caterpillars have been killed.

## CC(=O)NC1CCc2cc(N3CCC(c4cc(Cl)cc(Cl)c4)(C(F)(F)F)C3O)ccc21 (stereo not drawn) [I-A-1]
Boophilus microplus
  efficacy (100% means that all eggs are infertile): 100%

## CCC(=O)NC1CCc2cc(N3CCC(c4cc(Cl)cc(Cl)c4)(C(F)(F)F)C3O)ccc21 (stereo not drawn) [I-A-2]
Ctenocephalides felis
  mortality at 100 ppm: 100%
Lucilia cuprina
  mortality at 100 ppm: 100%
Boophilus microplus
  efficacy (100% means that all eggs are infertile): 100%
Musca domestica
  mortality at 100 ppm: 80%

## CC(=O)NC1CCc2cc(N3CCC(c4cc(Cl)c(Cl)c(Cl)c4)(C(F)(F)F)C3O)ccc21 (stereo not drawn) [I-A-13]
Boophilus microplus
  efficacy (100% means that all eggs are infertile): 100%

## CC(C)CC(=O)NC1CCc2cc(N3CCC(c4cc(Cl)c(Cl)c(Cl)c4)(C(F)(F)F)C3O)ccc21 (stereo not drawn) [I-A-18]
Boophilus microplus
  efficacy (100% means that all eggs are infertile): 100%

## O=C(CC1CC1)NC1CCc2cc(N3CCC(c4cc(Cl)c(Cl)c(Cl)c4)(C(F)(F)F)C3O)ccc21 (stereo not drawn) [I-A-21]
Boophilus microplus
  efficacy (100% means that all eggs are infertile): 100%

## O=C(NC1CCc2cc(N3CCC(c4cc(Cl)c(F)c(Cl)c4F)(C(F)(F)F)C3O)ccc21)C1CC1 (stereo not drawn) [I-A-31]
Boophilus microplus
  efficacy (100% means that all eggs are infertile): 100%

## O=C(CC1CC1)NC1CCc2cc(N3CCC(c4cc(Cl)c(F)c(Cl)c4F)(C(F)(F)F)C3O)ccc21 (stereo not drawn) [I-A-33]
Boophilus microplus
  efficacy (100% means that all eggs are infertile): 100%

## CC(=O)NC1CCc2cc(N3CCC(c4cc(C(F)(F)F)cc(C(F)(F)F)c4)(C(F)(F)F)C3O)ccc21 (stereo not drawn) [I-A-37]
Boophilus microplus
  efficacy (100% means that all eggs are infertile): 100%

## CCC(=O)NC1CCc2cc(N3CCC(c4cc(C(F)(F)F)cc(C(F)(F)F)c4)(C(F)(F)F)C3O)ccc21 (stereo not drawn) [I-A-38, N-(5-{3-[3,5-bis(trifluoromethyl)phenyl]-2-hydroxy-3-(trifluoromethyl)pyrrolidin-1-yl}-2,3-dihydro-1H-inden-1-yl)propanamide]
Tetranychus urticae
  mortality at 100 g/ha: 90%
Myzus persicae
  mortality at 100 g/ha: 100%
Phaedon cochleariae
  mortality at 100 g/ha: 100%
Spodoptera frugiperda
  mortality at 100 g/ha: 100%

## CCCC(=O)NC1CCc2cc(N3CCC(c4cc(C(F)(F)F)cc(C(F)(F)F)c4)(C(F)(F)F)C3O)ccc21 (stereo not drawn) [I-A-40]
Boophilus microplus
  efficacy (100% means that all eggs are infertile): 100%

## O=C(NC1CCc2cc(N3CCC(c4cc(Cl)cc(C(F)(F)F)c4)(C(F)(F)F)C3O)ccc21)C1CC1 (stereo not drawn) [I-A-79]
Boophilus microplus
  efficacy (100% means that all eggs are infertile): 100%

## O=C(NC1CCc2cc(N3CCC(c4ccc(F)c(C(F)(F)F)c4)(C(F)(F)F)C3O)ccc21)C1CC1 (stereo not drawn) [I-A-115]
Boophilus microplus
  efficacy (100% means that all eggs are infertile): 100%
